# Test results reported in PubChem BioAssay AID2060908 (Molecular Pharmacology Branch, DTP, NCI, 2025).
# Tested on: 186277-243-T-J2-PDC complex spheroids, viability
# Test: Anticancer human tumor 186277-243-T-J2-PDC patient-derived colon adenocarcinoma cell line growth inhibition [RAS]
# Details: for IC50: curve of first compound; for viability, T/C: stronger effect = lower value
# In short: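 Agents were tested in combination matrices in half-log decrements from a top concentration at or near clinical Cmax (10 microM if undetermined). Targets were multi-cell spheroids of tumour lines plus HUVEC and MSC stromal cells.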
# 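Further: spheroids exposed to compounds for 7 days before viability read.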
compound,measurement,setting,value
C=CC(=O)N1CCN(c2nc(OCC3CCCN3C)nc3c(F)c(-c4nc(N)cc(C)c4C(F)(F)F)c(Cl)cc23)C(C)C1 (centres undefined) + CCn1c(-c2cccnc2C(C)OC)c2c3cc(ccc31)N1CCOC(CC(NC(=O)C(C(C)C)N(C)C(=O)C3(F)CCN(C(=O)C#CC(C)(C)N(C)C)CC3)C(=O)N3CCCC(N3)C(=O)OCC(C)(C)C2)C1,IC50,second compound 0.000949 µM,> 1000 nM
same,IC50,second compound 0.003 µM,> 1000 nM
same,IC50,second compound 0.00949 µM,> 1000 nM
same,IC50,second compound 0.03 µM,> 1000 nM
same,IC50,second compound 0.0949 µM,> 1000 nM
same,IC50,second compound 0.3 µM,> 1000 nM
same,"viability, T/C","second compound 0.000949 µM, first compound 0.00316 µM",88.7%
same,"viability, T/C","second compound 0.000949 µM, first compound 0.01 µM",79%
same,"viability, T/C","second compound 0.000949 µM, first compound 0.0316 µM",89.2%
same,"viability, T/C","second compound 0.000949 µM, first compound 0.1 µM",80.8%
same,"viability, T/C","second compound 0.000949 µM, first compound 0.316 µM",95.6%
same,"viability, T/C","second compound 0.000949 µM, first compound 1 µM",96.6%
same,"viability, T/C","second compound 0.003 µM, first compound 0.00316 µM",88%
same,"viability, T/C","second compound 0.003 µM, first compound 0.01 µM",97.6%
same,"viability, T/C","second compound 0.003 µM, first compound 0.0316 µM",83.4%
same,"viability, T/C","second compound 0.003 µM, first compound 0.1 µM",102%
same,"viability, T/C","second compound 0.003 µM, first compound 0.316 µM",94.1%
same,"viability, T/C","second compound 0.003 µM, first compound 1 µM",111%
same,"viability, T/C","second compound 0.00949 µM, first compound 0.00316 µM",91.6%
same,"viability, T/C","second compound 0.00949 µM, first compound 0.01 µM",102%
same,"viability, T/C","second compound 0.00949 µM, first compound 0.0316 µM",104%
same,"viability, T/C","second compound 0.00949 µM, first compound 0.1 µM",106%
same,"viability, T/C","second compound 0.00949 µM, first compound 0.316 µM",98.6%
same,"viability, T/C","second compound 0.00949 µM, first compound 1 µM",98.3%
same,"viability, T/C","second compound 0.03 µM, first compound 0.00316 µM",81.4%
same,"viability, T/C","second compound 0.03 µM, first compound 0.01 µM",105%
same,"viability, T/C","second compound 0.03 µM, first compound 0.0316 µM",95.8%
same,"viability, T/C","second compound 0.03 µM, first compound 0.1 µM",107%
same,"viability, T/C","second compound 0.03 µM, first compound 0.316 µM",116%
same,"viability, T/C","second compound 0.03 µM, first compound 1 µM",91.7%
same,"viability, T/C","second compound 0.0949 µM, first compound 0.00316 µM",85.3%
same,"viability, T/C","second compound 0.0949 µM, first compound 0.01 µM",109%
same,"viability, T/C","second compound 0.0949 µM, first compound 0.0316 µM",121%
same,"viability, T/C","second compound 0.0949 µM, first compound 0.1 µM",106%
same,"viability, T/C","second compound 0.0949 µM, first compound 0.316 µM",95.6%
same,"viability, T/C","second compound 0.0949 µM, first compound 1 µM",93.7%
same,"viability, T/C","second compound 0.3 µM, first compound 0.00316 µM",98.2%
same,"viability, T/C","second compound 0.3 µM, first compound 0.01 µM",93.7%
same,"viability, T/C","second compound 0.3 µM, first compound 0.0316 µM",111%
same,"viability, T/C","second compound 0.3 µM, first compound 0.1 µM",97.5%
same,"viability, T/C","second compound 0.3 µM, first compound 0.316 µM",114%
same,"viability, T/C","second compound 0.3 µM, first compound 1 µM",99.7%
CC1(C)CCC(Nc2ncc(C(F)(F)F)c(-c3c[nH]c4c(P(C)(C)=O)c(C#N)ccc34)n2)CN1 (centres undefined) + CCn1c(-c2cccnc2C(C)OC)c2c3cc(ccc31)N1CCOC(CC(NC(=O)C(C(C)C)N(C)C(=O)C3(F)CCN(C(=O)C#CC(C)(C)N(C)C)CC3)C(=O)N3CCCC(N3)C(=O)OCC(C)(C)C2)C1,IC50,second compound 0.000949 µM,> 300 nM
same,IC50,second compound 0.003 µM,236 nM
same,IC50,second compound 0.00949 µM,> 300 nM
same,IC50,second compound 0.03 µM,> 300 nM
same,IC50,second compound 0.0949 µM,135 nM
same,IC50,second compound 0.3 µM,36.1 nM
same,"viability, T/C","second compound 0.000949 µM, first compound 0.000949 µM",79.3%
same,"viability, T/C","second compound 0.000949 µM, first compound 0.003 µM",84.8%
same,"viability, T/C","second compound 0.000949 µM, first compound 0.00949 µM",112%
same,"viability, T/C","second compound 0.000949 µM, first compound 0.03 µM",81.5%
same,"viability, T/C","second compound 0.000949 µM, first compound 0.0949 µM",57.9%
same,"viability, T/C","second compound 0.000949 µM, first compound 0.3 µM",51.6%
same,"viability, T/C","second compound 0.003 µM, first compound 0.000949 µM",100%
same,"viability, T/C","second compound 0.003 µM, first compound 0.003 µM",90.2%
same,"viability, T/C","second compound 0.003 µM, first compound 0.00949 µM",103%
same,"viability, T/C","second compound 0.003 µM, first compound 0.03 µM",83.5%
same,"viability, T/C","second compound 0.003 µM, first compound 0.0949 µM",58.6%
same,"viability, T/C","second compound 0.003 µM, first compound 0.3 µM",47.4%
same,"viability, T/C","second compound 0.00949 µM, first compound 0.000949 µM",104%
same,"viability, T/C","second compound 0.00949 µM, first compound 0.003 µM",104%
same,"viability, T/C","second compound 0.00949 µM, first compound 0.00949 µM",103%
same,"viability, T/C","second compound 0.00949 µM, first compound 0.03 µM",85.6%
same,"viability, T/C","second compound 0.00949 µM, first compound 0.0949 µM",56.3%
same,"viability, T/C","second compound 0.00949 µM, first compound 0.3 µM",50.5%
same,"viability, T/C","second compound 0.03 µM, first compound 0.000949 µM",92%
same,"viability, T/C","second compound 0.03 µM, first compound 0.003 µM",98.6%
same,"viability, T/C","second compound 0.03 µM, first compound 0.00949 µM",108%
same,"viability, T/C","second compound 0.03 µM, first compound 0.03 µM",85.1%
same,"viability, T/C","second compound 0.03 µM, first compound 0.0949 µM",57.9%
same,"viability, T/C","second compound 0.03 µM, first compound 0.3 µM",49.7%
same,"viability, T/C","second compound 0.0949 µM, first compound 0.000949 µM",107%
same,"viability, T/C","second compound 0.0949 µM, first compound 0.003 µM",103%
same,"viability, T/C","second compound 0.0949 µM, first compound 0.00949 µM",91.9%
same,"viability, T/C","second compound 0.0949 µM, first compound 0.03 µM",71.1%
same,"viability, T/C","second compound 0.0949 µM, first compound 0.0949 µM",53.3%
same,"viability, T/C","second compound 0.0949 µM, first compound 0.3 µM",43.3%
same,"viability, T/C","second compound 0.3 µM, first compound 0.000949 µM",102%
same,"viability, T/C","second compound 0.3 µM, first compound 0.003 µM",96.3%
same,"viability, T/C","second compound 0.3 µM, first compound 0.00949 µM",87.8%
same,"viability, T/C","second compound 0.3 µM, first compound 0.03 µM",51.9%
same,"viability, T/C","second compound 0.3 µM, first compound 0.0949 µM",36.8%
same,"viability, T/C","second compound 0.3 µM, first compound 0.3 µM",30.8%
